Key:
CCRF-CEM = assay: panel of 60 human tumor cell lines, growth inhibition (Leukemia)
SK-MEL-28 = assay: panel of 60 human tumor cell lines, growth inhibition (Melanoma); conditions: SK-MEL-28
UACC-62 = assay: as above; conditions: UACC-62
SNB-19 = assay: panel of 60 human tumor cell lines, growth inhibition (CNS Cancer); conditions: SNB-19
SNB-75 = assay: as above; conditions: SNB-75
HCC-2998 = assay: panel of 60 human tumor cell lines, growth inhibition (Colon Cancer); conditions: HCC-2998
HCT-116 = assay: as above; conditions: HCT-116
KM12 = assay: as above; conditions: KM12
786-0 = assay: panel of 60 human tumor cell lines, growth inhibition (Renal Cancer); conditions: 786-0
A498 = assay: as above; conditions: A498
RXF 393 = assay: as above; conditions: RXF 393
UO-31 = assay: as above; conditions: UO-31
T-47D = assay: panel of 60 human tumor cell lines, growth inhibition (Breast Cancer); conditions: T-47D
OVCAR-5 = assay: panel of 60 human tumor cell lines, growth inhibition (Ovarian Cancer); conditions: OVCAR-5
NCI/ADR-RES = assay: as above
SK-OV-3 = assay: as above; conditions: SK-OV-3
DU-145 = assay: panel of 60 human tumor cell lines, growth inhibition (Prostate Cancer); conditions: DU-145
NCI-H23 = assay: panel of 60 human tumor cell lines, growth inhibition (Non-Small Cell Lung Cancer); conditions: NCI-H23
NCI-H522 = assay: as above; conditions: NCI-H522

C=C1C(=O)O[C@H]2[C@H]1CC/C(COC(=O)N1CCC(F)(F)CC1)=C\CC[C@@]1(C)O[C@@H]21 [JVM 2-66]
GI50 (CCRF-CEM): 682 nM | TGI (CCRF-CEM): 3.41E−6 | Percent Growth (CCRF-CEM; Log10 Concentration −4.0): −53% | Percent Growth (CCRF-CEM; Log10 Concentration −5.0): −36% | Percent Growth (CCRF-CEM; Log10 Concentration −6.0): 41% | Percent Growth (CCRF-CEM; Log10 Concentration −7.0): 97% | Percent Growth (CCRF-CEM; Log10 Concentration −8.0): 97% | GI50 (SK-MEL-28): 2510 nM | TGI (SK-MEL-28): 7.42E−6 | Percent Growth (SK-MEL-28; Log10 Concentration −4.0): −84% | Percent Growth (SK-MEL-28; Log10 Concentration −5.0): −14% | Percent Growth (SK-MEL-28; Log10 Concentration −6.0): 92% | Percent Growth (SK-MEL-28; Log10 Concentration −7.0): 94% | Percent Growth (SK-MEL-28; Log10 Concentration −8.0): 102% | GI50 (UACC-62): 2110 nM | TGI (UACC-62): 6.00E−6 | Percent Growth (UACC-62; Log10 Concentration −4.0): −94% | Percent Growth (UACC-62; Log10 Concentration −5.0): −24% | Percent Growth (UACC-62; Log10 Concentration −6.0): 86% | Percent Growth (UACC-62; Log10 Concentration −7.0): 94% | Percent Growth (UACC-62; Log10 Concentration −8.0): 97% | GI50 (SNB-19): 12800 nM | TGI (SNB-19): 2.84E−5 | Percent Growth (SNB-19; Log10 Concentration −4.0): −79% | Percent Growth (SNB-19; Log10 Concentration −5.0): 66% | Percent Growth (SNB-19; Log10 Concentration −6.0): 89% | Percent Growth (SNB-19; Log10 Concentration −7.0): 91% | Percent Growth (SNB-19; Log10 Concentration −8.0): 93% | GI50 (SNB-75): 6130 nM | TGI (SNB-75): 2.03E−5 | Percent Growth (SNB-75; Log10 Concentration −4.0): −95% | Percent Growth (SNB-75; Log10 Concentration −5.0): 42% | Percent Growth (SNB-75; Log10 Concentration −6.0): 79% | Percent Growth (SNB-75; Log10 Concentration −7.0): 75% | Percent Growth (SNB-75; Log10 Concentration −8.0): 87% | GI50 (HCC-2998): 6240 nM | TGI (HCC-2998): 2.11E−5 | Percent Growth (HCC-2998; Log10 Concentration −4.0): −77% | Percent Growth (HCC-2998; Log10 Concentration −5.0): 37% | Percent Growth (HCC-2998; Log10 Concentration −6.0): 101% | Percent Growth (HCC-2998; Log10 Concentration −7.0): 91% | Percent Growth (HCC-2998; Log10 Concentration −8.0): 96% | GI50 (HCT-116): 1410 nM | TGI (HCT-116): 3.30E−6 | Percent Growth (HCT-116; Log10 Concentration −4.0): −100% | Percent Growth (HCT-116; Log10 Concentration −5.0): −65% | Percent Growth (HCT-116; Log10 Concentration −6.0): 70% | Percent Growth (HCT-116; Log10 Concentration −7.0): 93% | Percent Growth (HCT-116; Log10 Concentration −8.0): 99% | GI50 (KM12): 8550 nM | TGI (KM12): 2.26E−5 | Percent Growth (KM12; Log10 Concentration −4.0): −85% | Percent Growth (KM12; Log10 Concentration −5.0): 46% | Percent Growth (KM12; Log10 Concentration −6.0): 99% | Percent Growth (KM12; Log10 Concentration −7.0): 97% | Percent Growth (KM12; Log10 Concentration −8.0): 103% | GI50 (786-0): 3670 nM | TGI (786-0): 1.50E−5 | Percent Growth (786-0; Log10 Concentration −4.0): −81% | Percent Growth (786-0; Log10 Concentration −5.0): 17% | Percent Growth (786-0; Log10 Concentration −6.0): 93% | Percent Growth (786-0; Log10 Concentration −7.0): 91% | Percent Growth (786-0; Log10 Concentration −8.0): 97% | GI50 (A498): 1590 nM | TGI (A498): 6.87E−6 | Percent Growth (A498; Log10 Concentration −4.0): −93% | Percent Growth (A498; Log10 Concentration −5.0): −13% | Percent Growth (A498; Log10 Concentration −6.0): 66% | Percent Growth (A498; Log10 Concentration −7.0): 73% | Percent Growth (A498; Log10 Concentration −8.0): 84% | GI50 (RXF 393): 1200 nM | TGI (RXF 393): 2.53E−6 | Percent Growth (RXF 393; Log10 Concentration −4.0): −92% | Percent Growth (RXF 393; Log10 Concentration −5.0): −92% | Percent Growth (RXF 393; Log10 Concentration −6.0): 62% | Percent Growth (RXF 393; Log10 Concentration −7.0): 95% | Percent Growth (RXF 393; Log10 Concentration −8.0): 100% | GI50 (UO-31): 1990 nM | TGI (UO-31): 5.44E−6 | Percent Growth (UO-31; Log10 Concentration −4.0): −88% | Percent Growth (UO-31; Log10 Concentration −5.0): −30% | Percent Growth (UO-31; Log10 Concentration −6.0): 84% | Percent Growth (UO-31; Log10 Concentration −7.0): 86% | Percent Growth (UO-31; Log10 Concentration −8.0): 80% | GI50 (T-47D): 3070 nM | TGI (T-47D): 1.64E−5 | Percent Growth (T-47D; Log10 Concentration −4.0): −45% | Percent Growth (T-47D; Log10 Concentration −5.0): 13% | Percent Growth (T-47D; Log10 Concentration −6.0): 86% | Percent Growth (T-47D; Log10 Concentration −7.0): 84% | Percent Growth (T-47D; Log10 Concentration −8.0): 93% | GI50 (OVCAR-5): 4250 nM | TGI (OVCAR-5): 1.60E−5 | Percent Growth (OVCAR-5; Log10 Concentration −4.0): −83% | Percent Growth (OVCAR-5; Log10 Concentration −5.0): 21% | Percent Growth (OVCAR-5; Log10 Concentration −6.0): 99% | Percent Growth (OVCAR-5; Log10 Concentration −7.0): 90% | Percent Growth (OVCAR-5; Log10 Concentration −8.0): 96% | GI50 (NCI/ADR-RES): 5220 nM | TGI (NCI/ADR-RES): 2.08E−5 | Percent Growth (NCI/ADR-RES; Log10 Concentration −4.0): −65% | Percent Growth (NCI/ADR-RES; Log10 Concentration −5.0): 30% | Percent Growth (NCI/ADR-RES; Log10 Concentration −6.0): 99% | Percent Growth (NCI/ADR-RES; Log10 Concentration −7.0): 99% | Percent Growth (NCI/ADR-RES; Log10 Concentration −8.0): 100% | GI50 (SK-OV-3): 16200 nM | TGI (SK-OV-3): 3.22E−5 | Percent Growth (SK-OV-3; Log10 Concentration −4.0): −83% | Percent Growth (SK-OV-3; Log10 Concentration −5.0): 85% | Percent Growth (SK-OV-3; Log10 Concentration −6.0): 100% | Percent Growth (SK-OV-3; Log10 Concentration −7.0): 92% | Percent Growth (SK-OV-3; Log10 Concentration −8.0): 100% | GI50 (DU-145): 2440 nM | TGI (DU-145): 8.35E−6 | Percent Growth (DU-145; Log10 Concentration −4.0): −100% | Percent Growth (DU-145; Log10 Concentration −5.0): −7% | Percent Growth (DU-145; Log10 Concentration −6.0): 86% | Percent Growth (DU-145; Log10 Concentration −7.0): 100% | Percent Growth (DU-145; Log10 Concentration −8.0): 102% | GI50 (NCI-H23): 2590 nM | TGI (NCI-H23): 8.51E−6 | Percent Growth (NCI-H23; Log10 Concentration −4.0): −70% | Percent Growth (NCI-H23; Log10 Concentration −5.0): −7% | Percent Growth (NCI-H23; Log10 Concentration −6.0): 98% | Percent Growth (NCI-H23; Log10 Concentration −7.0): 96% | Percent Growth (NCI-H23; Log10 Concentration −8.0): 93% | GI50 (NCI-H522): 1250 nM | TGI (NCI-H522): 2.75E−6 | Percent Growth (NCI-H522; Log10 Concentration −4.0): −80% | Percent Growth (NCI-H522; Log10 Concentration −5.0): −81% | Percent Growth (NCI-H522; Log10 Concentration −6.0): 64% | Percent Growth (NCI-H522; Log10 Concentration −7.0): 92% | Percent Growth (NCI-H522; Log10 Concentration −8.0): 91%

Reference: US9469650B2, “Melampomagnolide B derivatives” (BOARD OF TRUSTEES OF THE UNIVERSITY OF ARKANSAS, priority 2013, dated 2016)
